Laboratory results published in patent US11304929B2, “Tosylacetate based compounds and derivatives thereof as PHGDH inhibitors” (priority 2017, dated 2022).

Target: PHGDH (Homo sapiens (Human), UniProt O43175)
Assay: 3-Phosphoglycerate Dehydrogenase (PHGDH) Fluorescence Intensity Assay, run at two NAD/3-PG ratios: PHGDH_HIGH_NAD/3-PG (250 μM NAD/500 μM 3-PG) and PHGDH_500_NAD/3-PG (500 μM NAD/500 μM 3-PG)
Assay type: biochemical
Conditions: 250 μM NAD/500 μM 3-PG; read-out: IC50 (PHGDH_HIGH_NAD/3-PG)
Text: This assay is used to identify compounds which inhibit the enzymatic activity of PHGDH which catalyzes the reaction of 3-Phosphoglycerate (3-PG) and NAD to 3-Phosphohydroxypyruvate and NADH.
The produced NADH is used in a coupled reaction for Diaphorase mediated reduction of Resazurin to Resorufin which can be measured in a Fluorescence Intensity readout.
The full length version of PHGDH enzyme was expressed in E. coli with an N-terminal HIS-tag and a TEV cleavage site.
The 3-Phosphoglycerate substrate was purchased from Sigma. NAD, Diaphorase and Resazurin were purchased from Sigma Aldrich.
Compounds are dispensed onto assay plates (black, low volume, flat bottom 384 well, Corning) using an Access Labcyte Workstation with the Labcyte Echo 55× from a DMSO solution. For the chosen highest assay concentration of 100 μM, 150 nl of compound solution are transferred from a 10 mM DMSO compound stock solution. A series of 11 concentrations (10 1:5 steps) is transferred for each compound.
The assay has been performed at two different NAD/3-PG ratios (final assay concentrations):
Plates are kept at room temperature. After 240 minutes incubation time the fluorescence signal is measured in a PerkinElmer Envision HTS Multilabel Reader with an excitation wavelength at 530-560 nm and an emission wavelength at 590 nm.
Each plate contains negative controls (diluted DMSO instead of test compound; reaction as described with PHGDH protein) and positive controls (diluted DMSO instead of test compound; reaction as described with buffer instead of PHGDH protein). Negative and positive control values are used for normalization.
IC50 values are calculated and analyzed in the MEGALAB IC50 application using a 4 parametric logistic model.

Chain of PHGDH (O43175 2-533 limits assumed): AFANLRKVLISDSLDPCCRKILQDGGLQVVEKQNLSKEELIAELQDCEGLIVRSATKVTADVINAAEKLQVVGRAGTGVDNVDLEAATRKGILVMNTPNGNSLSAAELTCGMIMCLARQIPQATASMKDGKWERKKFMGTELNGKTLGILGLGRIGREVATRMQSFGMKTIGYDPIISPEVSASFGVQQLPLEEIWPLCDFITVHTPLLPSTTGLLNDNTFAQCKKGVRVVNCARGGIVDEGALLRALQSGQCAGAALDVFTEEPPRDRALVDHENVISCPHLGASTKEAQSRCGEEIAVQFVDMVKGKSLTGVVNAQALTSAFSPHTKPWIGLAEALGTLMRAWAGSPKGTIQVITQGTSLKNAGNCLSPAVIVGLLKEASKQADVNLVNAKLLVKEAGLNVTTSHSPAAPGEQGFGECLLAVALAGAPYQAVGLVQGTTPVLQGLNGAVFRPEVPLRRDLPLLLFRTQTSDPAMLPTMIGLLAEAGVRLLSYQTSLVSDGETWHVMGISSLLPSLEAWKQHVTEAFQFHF

Row | Structure (SMILES) | IC50 [nM]
1 | C#Cc1cc(Cl)c2cc(C(=O)NC(C)c3ccc(S(=O)(=O)CC(=O)OC)cc3)n(C)c2c1 (centres unmarked) [Example 01-008, methyl 2-(4-{1-[(4-chloro-6-ethynyl-1-methyl-1H-indol-2-yl)formamido]ethyl}benzenesulfonyl)acetate] | 1690
2 | COC(=O)CS(=O)(=O)c1ccc([C@@H](C)NC(=O)c2cc3c4ccccc4c(C)cc3n2C)cc1 [Example 01-010, methyl 2-{4-[(1R)-1-({3,5-dimethyl-3H-benzo[e]indol-2-yl}formamido)ethyl]benzenesulfonyl}acetate] | 943
3 | Cc1cc(Cl)c2cc(C(=O)N[C@H](C)c3ccc(S(=O)(=O)CC(=O)OC(C)(C)C)cc3)n(C)c2c1 [Example 01-014, tert-butyl 2-{4-[(1R)-1-[(4-chloro-1,6-dimethyl-1H-indol-2-yl)formamido]ethyl]benzenesulfonyl}acetate] | 4250
4 | COC(=O)CS(=O)(=O)c1ccc([C@@H](C)NC(=O)c2cc3c(Cl)cc(C)c(C)c3n2C)cc1 [Example 01-015, methyl 2-{4-[(1R)-1-[(4-chloro-1,6,7-trimethyl-1H-indol-2-yl)formamido]ethyl]benzenesulfonyl}acetate] | 583
5 | COC(=O)CS(=O)(=O)c1ccc([C@H](C)NC(=O)c2cc3c(Cl)c(Cl)c(C)cc3n2C)cc1 [Example 01-017, methyl 2-{4-[(1S)-1-[(4,5-dichloro-1,6-dimethyl-1H-indol-2-yl)formamido]ethyl]benzenesulfonyl}acetate] | 6720
6 | COC(=O)CS(=O)(=O)c1ccc([C@@H](C)NC(=O)c2cc3cc(Cl)ccc3n2C)cc1 [Example 01-019, methyl 2-{4-[(1R)-1-[(5-chloro-1-methyl-1H-indol-2-yl)formamido]ethyl]benzenesulfonyl}acetate] | 2480
7 | COC(=O)CS(=O)(=O)c1ccc(C(C)NC(=O)c2cc3c(Cl)cc(I)cc3n2C)cc1 (centres unmarked) [Example 01-020, methyl 2-(4-{1-[(4-chloro-6-iodo-1-methyl-1H-indol-2-yl)formamido]ethyl}benzenesulfonyl)acetate] | 1790
8 | Cc1cc2c(cc(C(=O)N[C@H](C)c3ccc(S(=O)(=O)CC(=O)O[13CH3])cc3)n2C)c(Cl)c1Cl [Example 01-022, (^13C)methyl 2-{4-[(1R)-1-[(4,5-dichloro-1,6-dimethyl-1H-indol-2-yl)formamido]ethyl]benzenesulfonyl}acetate] | 414
9 | Cc1cc(Cl)c2cc(C(=O)N[C@H](C)c3ccc(S(=O)(=O)CC(=O)OC(C)C)cc3)n(C)c2c1 [Example 01-024, propan-2-yl 2-{4-[(1R)-1-[(4-chloro-1,6-dimethyl-1H-indol-2-yl)formamido]ethyl]benzenesulfonyl}acetate] | 3550
10 | CCOC(=O)CS(=O)(=O)c1ccc([C@@H](C)NC(=O)c2cc3cc(Cl)c(-c4cnn(CCN5CCOCC5)c4)cc3n2C)cc1 [Example 01-025, ethyl 2-{4-[(1R)-1-[(5-chloro-1-methyl-6-{1-[2-(morpholin-4-yl)ethyl]-1H-pyrazol-4-yl}-1H-indol-2-yl)formamido]ethyl]benzenesulfonyl}acetate] | 742
11 | COC(=O)CS(=O)(=O)c1ccc(CNC(=O)c2cc3c(Cl)cc(C)cc3n2C)cc1 [Example 01-030, methyl 2-(4-{[(4-chloro-1,6-dimethyl-1H-indol-2-yl)formamido]methyl}benzenesulfonyl)acetate] | 3390
12 | Cc1cc(Cl)c2cc(C(=O)NCc3ccc(S(=O)(=O)CC(=O)OC(C)C)cc3)n(C)c2c1 [Example 01-031, propan-2-yl 2-(4-{[(4-chloro-1,6-dimethyl-1H-indol-2-yl)formamido]methyl}benzenesulfonyl)acetate] | > 20000
13 | CCOC(=O)CS(=O)(=O)c1ccc(CNC(=O)c2cc3c(Cl)cc(C)cc3n2C)cc1 [Example 01-032, ethyl 2-(4-{[(4-chloro-1,6-dimethyl-1H-indol-2-yl)formamido]methyl}benzenesulfonyl)acetate] | 5940
14 | Cc1cc2c(cc(C(=O)N[C@H](C)c3ccc(S(=O)(=O)CC(=O)OC(C)C)cc3)n2C)c(Cl)c1F [Example 01-033, propan-2-yl 2-{4-[(1R)-1-[(4-chloro-5-fluoro-1,6-dimethyl-1H-indol-2-yl)formamido]ethyl]benzenesulfonyl}acetate] | 36500
15 | Cc1cc(Cl)c2cc(C(=O)N[C@H](CO)c3ccc(S(=O)(=O)CC(=O)OC(C)C)cc3)n(C)c2n1 [Example 01-034, propan-2-yl 2-{4-[(1S)-1-({4-chloro-1,6-dimethyl-1H-pyrrolo[2,3-b]pyridin-2-yl}formamido)-2-hydroxyethyl]benzenesulfonyl}acetate] | 1150
16 | Cc1cc2c(cc(C(=O)N[C@H](CO)c3ccc(S(=O)(=O)CC(=O)OC(C)C)cc3)n2C)c(Cl)c1F [Example 01-035, propan-2-yl 2-{4-[(1S)-1-[(4-chloro-5-fluoro-1,6-dimethyl-1H-indol-2-yl)formamido]-2-hydroxyethyl]benzenesulfonyl}acetate] | 466
17 | Cc1cc(Cl)c2cc(C(=O)N[C@H](C)c3ccc(S(=O)(=O)CC(=O)OC(C)C)cc3)n(C)c2n1 [Example 01-036, propan-2-yl 2-{4-[(1R)-1-({4-chloro-1,6-dimethyl-1H-pyrrolo[2,3-b]pyridin-2-yl}formamido)ethyl]benzenesulfonyl}acetate] | 1830
18 | Cc1cc2c(cc(C(=O)N[C@H](C)c3ccc(S(=O)(=O)CC(=O)OC(C)C)cc3)n2C)c(Cl)c1Cl [Example 01-037, propan-2-yl 2-{4-[(1R)-1-[(4,5-dichloro-1,6-dimethyl-1H-indol-2-yl)formamido]ethyl]benzenesulfonyl}acetate] | 3370
19 | Cc1cc(Cl)c2cc(C(=O)N[C@H](CO)c3ccc(S(=O)(=O)CC(=O)OC(C)C)cc3)n(C)c2c1 [Example 01-038, propan-2-yl 2-{4-[(1S)-1-[(4-chloro-1,6-dimethyl-1H-indol-2-yl)formamido]-2-hydroxyethyl]benzenesulfonyl}acetate] | 261
20 | Cc1cc2c(cc(C(=O)N[C@H](CO)c3ccc(S(=O)(=O)CC(=O)OC(C)C)cc3)n2C)c(F)c1F [Example 01-039, propan-2-yl 2-{4-[(1S)-1-[(4,5-difluoro-1,6-dimethyl-1H-indol-2-yl)formamido]-2-hydroxyethyl]benzenesulfonyl}acetate] | 1120
21 | CC(C)OC(=O)CS(=O)(=O)c1ccc([C@@H](CO)NC(=O)c2cc3c(Cl)cc(N4CCN(C)CC4)cc3n2C)cc1 [Example 01-040, propan-2-yl 2-{4-[(1S)-1-{[4-chloro-1-methyl-6-(4-methylpiperazin-1-yI)-1H-indol-2-yl]formamido}-2-hydroxyethyl]benzenesulfonyl}acetate] | 981
22 | CC(C)OC(=O)CS(=O)(=O)c1ccc([C@@H](C)NC(=O)c2cc3c(Cl)cc(N4CCN(C)CC4)cc3n2C)cc1 [Example 01-041, propan-2-yl 2-{4-[(1R)-1-{[4-chloro-1-methyl-6-(4-methylpiperazin-1-yl)-1H-indol-2-yl]formamido}ethyl]benzenesulfonyl}acetate] | 3140
23 | COC(=O)CS(=O)(=O)c1ccc([C@@H](C)NC(=O)c2cc(-c3ccccc3)nn2C)cc1 [Example 02-002, methyl 2-{4-[(1R)-1-[(1-methyl-3-phenyl-1H-pyrazol-5-yl)formamido]ethyl]benzenesulfonyl}acetate] | 1360
